Source: patent US20230293404A1, “Compositions Comprising Natural Polymers and One or More (Bio)-Alkanediols” (Symrise AG, priority 2020, published 2023)

What was measured:
[1] = Physical state of alkanediols and alkanediol mixtures at RTP; assay type: physicochemical; conditions: at RTP (room temperature, normal pressure); FIG. 3 and FIG. 4
From the text: The term “liquid alkanediol” within the context of the present invention means an alkanediol component which is liquid at room or ambient temperature and under normal pressure, i.e. standard RTP conditions.
FIG. 3 is a photograph showing from left to right samples of the liquid 1,2-pentanediol, 1,2-hexanediol, 1,2-heptanediol, 2,3-heptanediol, 2,3-octanediol and 2,3-undecanediol in comparison to the solid 1,2-octanediol, 1,2-undecanediol, 1,2-nonanediol and the liquid 2,3-nonanediol. The first six alkanediols are liquid at RTP, whereas 1,2-octanediol, 1,2-nonanediol and 1,2-undecanediol are solid substances at RTP; 2,3-nonanediol is also liquid at RTP.
FIG. 4 is a representative photograph of samples of mixtures of 1,2-alkanediols with the respective 2,3-alkanediol. All mixtures are liquid. They are shown in the following order: 1,2-heptanediol (95%)+2,3-heptanediol (5%), 1,2-octanediol (95%)+2,3-octanediol (5%), and 1,2-nonanediol (95%)+2,3-nonanediol (5%).

[2] = Maximum solubility of alkanediols in water (visual assessment); assay type: physicochemical; conditions: assessed at ambient temperature after 24 h storage at 5° C.; visual observation
From the text: The water solubility of a substance is the saturation mass concentration of the substance in water at a given temperature. The determination of the solubility in water relates to essentially pure substances which are stable in water and not volatile.
For the determination of the maximum water solubility of an alkanediol, water and different concentrations of the respective alkanediol were blended by stirring. […] The determination of whether the alkanediol has dissolved in water is based entirely on visual observation.

[3] = test system: microbial load of natural polymers; assay: Microbial load of mixtures of natural polymers with alkanediols (plating, CFU count); assay type: cell-based, bacteria
Description: The following tests were performed to show the influence of different alkanediols on the microbial load of natural polymers.
A selection of natural polymers as specified in Table 1 was systematically analyzed in combination with different 1,2-alkanediols and 2,3-alkanediols (0.5%). The polymers were chosen to be representative from different polymer classes:
A mixture of the natural polymer (concentration as recommended by supplier) with water and 1,2-alkanediol (0.5%) or 2,3-alkanediol (0.5%) or a mixture of 1,2-alkanediol and 2,3-alkanediol (0.5% final concentration) was prepared, as representative of a cold formulation preparation processes, and directly sampled for determination of microbial load. Additionally, the mixtures were stored at 40° C. and again sampled for microbial load after 2 days and 7 days.
The microbial load of the mixtures was determined by plating 1000 μl (or respective dilutions of the material) on an agar plate based on universal bacterial growth medium (Caseinpepton-Sojamehlpepton-Bouillon, Merck 1.05459+Agar No. 1, Oxoid LP0011). The plates were then incubated at 37° C. for 5 days and then photo documented. In parallel, bacterial colonies were counted (CFU—colony forming units per ml).

[4] = Covathick (0.5%) in water + 0.5% 2,3-alkanediol, 2 days storage at 40° C.
[5] = Covathick (0.5%) in water + 0.5% 2,3-alkanediol, 7 days storage at 40° C.
[6] = Covathick (0.5%) in water + 0.5% 2,3-alkanediol, fresh
[7] = Genuvisco (0.5%) in water + 0.5% 2,3-alkanediol, 2 days storage at 40° C.
[8] = Genuvisco (0.5%) in water + 0.5% 2,3-alkanediol, 7 days storage at 40° C.
[9] = Genuvisco (0.5%) in water + 0.5% 2,3-alkanediol, fresh
[10] = Polycos-N 75 (0.5%) in water + 0.5% 2,3-alkanediol, fresh
[11] = Table 4: Covathick (0.5%) in water + alkanediol or mixture, 0.5% total, 2 days storage at 40° C.
[12] = Table 4: Covathick (0.5%) in water + alkanediol or mixture, 0.5% total, 7 days storage at 40° C.
[13] = Table 4: Covathick (0.5%) in water + alkanediol or mixture, 0.5% total, fresh
[14] = Table 4: PolyCos N-75 (0.5%) in water + alkanediol or mixture, 0.5% total, fresh
[15] = Covathick (2009, cellulose 0.5%) in water + 0.5% 1,2-alkanediol, 2 days storage at 40° C.
[16] = Covathick (2009, cellulose 0.5%) in water + 0.5% 1,2-alkanediol, 7 days storage at 40° C.
[17] = Covathick (2009, cellulose 0.5%) in water + 0.5% 1,2-alkanediol, fresh
[18] = Genuvisco (CG-131, carrageenan 0.5%) in water + 0.5% 1,2-alkanediol, 2 days storage at 40° C.
[19] = Genuvisco (CG-131, carrageenan 0.5%) in water + 0.5% 1,2-alkanediol, 7 days storage at 40° C.
[20] = Genuvisco (CG-131, carrageenan 0.5%) in water + 0.5% 1,2-alkanediol, fresh
[21] = Nativacare (5600, corn starch 3%) in water + 0.5% 1,2-alkanediol, 2 days storage at 40° C.
[22] = Nativacare (5600, corn starch 3%) in water + 0.5% 1,2-alkanediol, 7 days storage at 40° C.
[23] = Nativacare (5600, corn starch 3%) in water + 0.5% 1,2-alkanediol, fresh
[24] = Polycos-N 75 (guar gum 0.5%) in water + 0.5% 1,2-alkanediol, 2 days storage at 40° C.
[25] = Polycos-N 75 (guar gum 0.5%) in water + 0.5% 1,2-alkanediol, 7 days storage at 40° C.
[26] = Polycos-N 75 (guar gum 0.5%) in water + 0.5% 1,2-alkanediol, fresh
[27] = Xanthan Gum (Rheocare XGN 0.5%) in water + 0.5% 1,2-alkanediol, 2 days storage at 40° C.
[28] = Xanthan Gum (Rheocare XGN 0.5%) in water + 0.5% 1,2-alkanediol, fresh

Compound: CCCCC(O)C(C)O (stereo not drawn) [2,3-heptanediol]
- Physical state [1]: liquid
- Maximum solubility in water [2]: 3.6 % by weight
- Bacterial load (colony forming units) [3, 4]: 0 CFU per mL
- Bacterial load (colony forming units) [3, 5]: 0 CFU per mL
- Bacterial load (colony forming units) [3, 6]: 5 CFU per mL
- Bacterial load (colony forming units) [3, 7]: 1 CFU per mL
- Bacterial load (colony forming units) [3, 8]: 1 CFU per mL
- Bacterial load (colony forming units) [3, 9]: 5 CFU per mL
- Bacterial load (colony forming units) [3, 10]: 2 CFU per mL
- Bacterial load (colony forming units) [3, 11]: 0 CFU per mL
- Bacterial load (colony forming units) [3, 12]: 0 CFU per mL
- Bacterial load (colony forming units) [3, 13]: 5 CFU per mL
- Bacterial load (colony forming units) [3, 14]: 2 CFU per mL

Compound: CCCCCC(O)CO (stereo not drawn) [1,2-heptanediol]
- Physical state [1]: liquid
- Maximum solubility in water [2]: 2.5 % by weight
- Bacterial load (colony forming units) [3, 15]: 0 CFU per ml
- Bacterial load (colony forming units) [3, 16]: 0 CFU per ml
- Bacterial load (colony forming units) [3, 17]: 4 CFU per ml
- Bacterial load (colony forming units) [3, 18]: 0 CFU per ml
- Bacterial load (colony forming units) [3, 19]: 0 CFU per ml
- Bacterial load (colony forming units) [3, 20]: 0 CFU per ml
- Bacterial load (colony forming units) [3, 21]: 0 CFU per ml
- Bacterial load (colony forming units) [3, 22]: 0 CFU per ml
- Bacterial load (colony forming units) [3, 23]: 0 CFU per ml
- Bacterial load (colony forming units) [3, 24]: 0 CFU per ml
- Bacterial load (colony forming units) [3, 25]: 0 CFU per ml
- Bacterial load (colony forming units) [3, 26]: 5 CFU per ml
- Bacterial load (colony forming units) [3, 11]: 0 CFU per mL
- Bacterial load (colony forming units) [3, 12]: 0 CFU per mL
- Bacterial load (colony forming units) [3, 13]: 4 CFU per mL
- Bacterial load (colony forming units) ([3]; Table 4: PolyCos N-75 (0.5%) in water + alkanediol or mixture, 0.5% total, 2 days storage at 40° C.): 0 CFU per mL
- Bacterial load (colony forming units) ([3]; Table 4: PolyCos N-75 (0.5%) in water + alkanediol or mixture, 0.5% total, 7 days storage at 40° C.): 0 CFU per mL
- Bacterial load (colony forming units) [3, 14]: 5 CFU per mL
- Bacterial load (colony forming units) ([3]; Table 4: Xanthan Gum (0.5%) in water + alkanediol or mixture, 0.5% total, 2 days storage at 40° C.): 2 CFU per mL
- Bacterial load (colony forming units) ([3]; Table 4: Xanthan Gum (0.5%) in water + alkanediol or mixture, 0.5% total, 7 days storage at 40° C.): 0 CFU per mL
- Bacterial load (colony forming units) ([3]; Table 5: Covathick (0.5 %) in water + alkanediol or mixture, 0.5% total, 2 days storage at 40° C.): 0 CFU per mL
- Bacterial load (colony forming units) ([3]; Table 5: Covathick (0.5 %) in water + alkanediol or mixture, 0.5% total, 7 days storage at 40° C.): 0 CFU per mL
- Bacterial load (colony forming units) ([3]; Table 5: Covathick (0.5 %) in water + alkanediol or mixture, 0.5% total, fresh): 4 CFU per mL
- Bacterial load (colony forming units) ([3]; Table 5: PolyCos N-75 (0.5 %) in water + alkanediol or mixture, 0.5% total, 2 days storage at 40° C.): 0 CFU per mL
- Bacterial load (colony forming units) ([3]; Table 5: PolyCos N-75 (0.5 %) in water + alkanediol or mixture, 0.5% total, 7 days storage at 40° C.): 0 CFU per mL
- Bacterial load (colony forming units) ([3]; Table 5: PolyCos N-75 (0.5 %) in water + alkanediol or mixture, 0.5% total, fresh): 5 CFU per mL
- Bacterial load (colony forming units) ([3]; Table 5: Xanthan Gum (0.5 %) in water + alkanediol or mixture, 0.5% total, 2 days storage at 40° C.): 2 CFU per mL
- Bacterial load (colony forming units) ([3]; Table 5: Xanthan Gum (0.5 %) in water + alkanediol or mixture, 0.5% total, 7 days storage at 40° C.): 0 CFU per mL
- Bacterial load (colony forming units) [3, 27]: 2 CFU per ml
- Bacterial load (colony forming units) ([3]; Xanthan Gum (Rheocare XGN 0.5%) in water + 0.5% 1,2-alkanediol, 7 days storage at 40° C.): 0 CFU per ml
- Activity to stabilize natural polymer solutions for storage by removing their microbial load (in words) ([3]; compared to 1,2-pentanediol and 1,2-hexanediol, Table 2): superior activity

Compound: CCCC(O)CO (stereo not drawn) [1,2-pentanediol]
- Physical state [1]: liquid
- Maximum solubility in water [2]: 50 % by weight
- Bacterial load (colony forming units) [3, 15]: >13 CFU per ml
- Bacterial load (colony forming units) [3, 16]: 4 CFU per ml
- Bacterial load (colony forming units) [3, 17]: 84 CFU per ml
- Bacterial load (colony forming units) [3, 18]: 2800 CFU per ml
- Bacterial load (colony forming units) [3, 19]: 0 CFU per ml
- Bacterial load (colony forming units) [3, 20]: 35 CFU per ml
- Bacterial load (colony forming units) [3, 21]: 27 CFU per ml
- Bacterial load (colony forming units) [3, 22]: >1000 CFU per ml
- Bacterial load (colony forming units) [3, 23]: 0 CFU per ml
- Bacterial load (colony forming units) [3, 25]: 13 CFU per ml
- Bacterial load (colony forming units) [3, 26]: 13 CFU per ml
- Bacterial load (colony forming units) [3, 28]: >249 CFU per ml

Compound: CCCCC(O)CO (stereo not drawn) [1,2-hexanediol]
- Physical state [1]: liquid
- Maximum solubility in water [2]: 50 % by weight
- Bacterial load (colony forming units) [3, 15]: 0 CFU per ml
- Bacterial load (colony forming units) [3, 16]: >13 CFU per ml
- Bacterial load (colony forming units) [3, 17]: 3 CFU per ml
- Bacterial load (colony forming units) [3, 19]: 0 CFU per ml
- Bacterial load (colony forming units) [3, 20]: 3 CFU per ml
- Bacterial load (colony forming units) [3, 21]: 0 CFU per ml
- Bacterial load (colony forming units) [3, 22]: 0 CFU per ml
- Bacterial load (colony forming units) [3, 23]: 1 CFU per ml
- Bacterial load (colony forming units) [3, 24]: 19 CFU per ml
- Bacterial load (colony forming units) [3, 25]: 2 CFU per ml
- Bacterial load (colony forming units) [3, 26]: 9 CFU per ml
- Bacterial load (colony forming units) [3, 27]: 1 CFU per ml
- Bacterial load (colony forming units) [3, 28]: 7 CFU per ml

Compound: CCCCCCC(O)C(C)O (stereo not drawn) [2,3-nonanediol]
- Physical state [1]: liquid
- Maximum solubility in water [2]: 0.3 % by weight

Compound: CCCCCCC(O)CO (stereo not drawn) [1,2-octanediol]
- Physical state [1]: solid
- Maximum solubility in water [2]: 0.5 % by weight

Compound: CCCCCCCCC(O)C(C)O (stereo not drawn) [2,3-undecanediol]
- Physical state [1]: liquid
- Bacterial load (colony forming units) [3, 4]: 0 CFU per mL
- Bacterial load (colony forming units) [3, 5]: 0 CFU per mL
- Bacterial load (colony forming units) [3, 6]: 0 CFU per mL
- Bacterial load (colony forming units) [3, 7]: 0 CFU per mL
- Bacterial load (colony forming units) [3, 8]: 0 CFU per mL
- Bacterial load (colony forming units) [3, 9]: 0 CFU per mL
- Bacterial load (colony forming units) ([3]; Polycos-N 75 (0.5%) in water + 0.5% 2,3-alkanediol, 2 days storage at 40° C.): 0 CFU per mL
- Bacterial load (colony forming units) ([3]; Polycos-N 75 (0.5%) in water + 0.5% 2,3-alkanediol, 7 days storage at 40° C.): 0 CFU per mL
- Bacterial load (colony forming units) [3, 10]: 0 CFU per mL
- Bacterial load (colony forming units) ([3]; Xanthan Gum (0.5%) in water + 0.5% 2,3-alkanediol, 2 days storage at 40° C.): 0 CFU per mL
- Bacterial load (colony forming units) ([3]; Xanthan Gum (0.5%) in water + 0.5% 2,3-alkanediol, 7 days storage at 40° C.): 0 CFU per mL
- Bacterial load (colony forming units) ([3]; Xanthan Gum (0.5%) in water + 0.5% 2,3-alkanediol, fresh): 0 CFU per mL
- Effect on the microbial load of the natural polymer solutions (in words) ([3]; directly after preparation of the mixtures as well as after 7 days storage, Table 3): superior antimicrobial activity

Compound: CCCCCCCC(O)CO (stereo not drawn) [1,2-nonanediol]
- Physical state [1]: solid
- Maximum solubility in water [2]: 0.1 % by weight

Compound: CCCCCCCCCC(O)CO (stereo not drawn) [1,2-undecanediol]
- Physical state [1]: solid
